Experiment in all cases: DTP human tumour cell line panel, 48 h
Assay [1] deals with DMS-114.
Assay [2] has as its system KM-20L2.
Assay [3] has as its system M19-MEL.
For assay [4], the system named is SNB-78.
Assay [5] relates to LXFL 529.
Assay [6] deals with XF498.
In assay [7] the test system is HOP-18.
Assay [8] has as its system DMS-273.
Assay [9] deals with RXF 631.

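A five-concentration, 48-hour dose response in 96-well plates underlies each endpoint, interpolated linearly between surrounding concentrations. GI50 marks 50% less growth.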 Activity calls are given as the source filed them. Rule as the data show it: active = GI50 up to about 1.1 µM and inactive = higher.

For `Cc1cc(NS(=O)(=O)c2ccc(NC(=O)c3ccc(Cl)c4c(Nc5ccc(S(=O)(=O)N=C(N)N)cc5)c5ccccc5nc34)cc2)no1`, the GI50 (usually the concentration giving 50% growth inhibition) is 62.4 µM (inactive) in [1]; > 100 µM (inactive) in [2]; 46.8 µM (inactive) in assay [3]; 41.9 µM (inactive) in assay [4]; 31.8 µM (inactive) in assay [5]; 17.6 µM (inactive) in assay [6].

In the case of `CCOC(=O)C(NO)C(Sc1ccccc1)c1ccc(OC)cc1` (centres undefined), the GI50 in assay [7] is > 100 µM (inactive); in assay [8] it was > 100 µM (inactive); in assay [1], 64.7 µM (inactive); in [2], > 100 µM (inactive); in assay [3], 69.2 µM (inactive); in [4] it was > 100 µM (inactive). In addition, the GI50 in assay [5] is > 100 µM (inactive); in assay [6] it was 31 µM (inactive).

As to `COC(=O)C1=C(C(=O)OC)C2(C)OC1C(=O)C21CC1` (centres undefined), the GI50 was 17.7 µM (inactive) in assay [8]; 20.4 µM (inactive) in assay [1]; 23.7 µM (inactive) in assay [2]; 71 µM (inactive) in assay [3]; 19.5 µM (inactive) in assay [5]; 17.1 µM (inactive) in assay [9]. For the same compound, the GI50 in [6] was 13.6 µM (inactive).

With `COc1ccc(C(=O)C(C(=O)C(=O)Nc2ccc(Cl)c(Cl)c2)c2ccc(OC)cc2)cc1` (centres undefined), the GI50 is > 100 µM (inactive) in assay [7]; > 100 µM (inactive) in [8]; 76.9 µM (inactive) in [1]; > 100 µM (inactive) in assay [2]; > 100 µM (inactive) in [3]; > 100 µM (inactive) in assay [4]. Further, the GI50 in assay [5] and in assay [6] was > 100 µM (inactive) each time.

For the compound `O=C1CCN2C(=Nc3cccc4cccc2c34)N1`, the GI50 in [8], in assay [1], in [2], in assay [3], in assay [4] and in assay [5] was > 100 µM (inactive) each time. In addition, the GI50 in assay [6] was > 100 µM (inactive).

As for `Cc1ccc(C2=Nc3ccccc3SC(c3cccc4c3OCO4)C2)cc1` (centres undefined), the GI50 in assay [7] was 13.5 µM (inactive); in [8] it was 19.7 µM (inactive); in [2], 21.3 µM (inactive); in assay [3], 19.8 µM (inactive); in assay [5], 15 µM (inactive); in assay [6] it was 15.5 µM (inactive).

For `CCOc1cc2cnc3c4cc(OC)c(OC)cc4ccc3c2cc1OC`, the GI50 is 16.9 µM (inactive) in assay [7]; 7.1 µM (inactive) in assay [1]; > 100 µM (inactive) in assay [2]; 39.8 µM (inactive) in [3]; > 100 µM (inactive) in assay [4]; 9.02 µM (inactive) in assay [5].

As for `COc1ccc(N2C(=O)/C(=C/c3ccc(N(CCC#N)CCC#N)cc3C)N=C2/C=C\c2ccccc2)cc1`, the GI50 in assay [7] is > 100 µM (inactive); in assay [1], 23.9 µM (inactive); in assay [2] it was 4.73 µM (inactive); in assay [3], 26.5 µM (inactive); in assay [4], > 100 µM (inactive); in assay [5] it was 8.43 µM (inactive). Also, in assay [9], the GI50 is > 100 µM (inactive).

As for `O=C(O)C1(c2ccccc2)CCCNCC1` (centres undefined), the GI50 in assay [7], in assay [8], in assay [1], in [2], in assay [3] and in [4] was > 100 µM (inactive) in each case. Also, the GI50 in assay [5] and in assay [9] was > 100 µM (inactive) each time.

In the case of `COc1cccc(-c2cc(O)c3ccccc3n2)c1`, the GI50 in assay [7] is 15.2 µM (inactive); in [8] it was 4.53 µM (inactive); in [1], 4.69 µM (inactive); in assay [2] it was 9.77 µM (inactive); in [3] it was 8.15 µM (inactive); in assay [5] it was 4.86 µM (inactive). Also, in assay [6], the GI50 is 4.07 µM (inactive).

For the compound `CP(C)C.[Ag][I]`, the GI50 in assay [7] was 62.8 µM (inactive); in [8], > 100 µM (inactive); in assay [1] it was 73.8 µM (inactive); in assay [2] it was > 100 µM (inactive); in [3], > 100 µM (inactive); in assay [4], 28.4 µM (inactive). The GI50 is 16 µM (inactive) in assay [5], 24.3 µM (inactive) in assay [9] and 15 µM (inactive) in [6].

As to `COC(=O)/C(=N\NC(=S)NN)C(C(=O)C(=O)Nc1ccccc1C(N)=O)c1nc2ccccc2nc1O` (centres undefined), the GI50 in assay [7], in assay [8], in assay [1], in assay [2], in assay [3] and in [4] was > 100 µM (inactive) throughout. The GI50 in [5], in [9] and in [6] was > 100 µM (inactive) in each case.

`O=C(Cc1nc2ccccc2s1)C(=O)Nc1ccc(Cl)cc1Cl`: the GI50 in assay [8], in assay [2], in assay [3], in assay [4], in assay [5] and in assay [9] was > 100 µM (inactive) each time. Besides, the GI50 in assay [6] was > 100 µM (inactive).

`CCCCNC1=C(C(=O)OCC)C(=O)CO1`: the GI50 in assay [7], in [8], in assay [1], in [2], in assay [3] and in assay [5] was > 100 µM (inactive) throughout. For the same compound, in [6], the GI50 is > 100 µM (inactive).

Turning to `OCn1nc2c(C3OCCO3)cc3ccccc3n2c1=S`, the GI50 in [7], in assay [8], in assay [1], in assay [2], in [3] and in assay [4] was > 100 µM (inactive) each time. Moreover, the GI50 in assay [5], in assay [9] and in assay [6] was > 100 µM (inactive) throughout.

On to `CC(=O)OC1C(CCl)OC(N=[N+]=[N-])C(OC(C)=O)C1OC(C)=O` (centres undefined), for which the GI50 was > 100 µM (inactive) in assay [8]; > 100 µM (inactive) in assay [1]; > 100 µM (inactive) in [2]; > 100 µM (inactive) in [3]; > 10 µM (inactive) in [5]; > 100 µM (inactive) in [9]. Also, the GI50 in [6] was > 100 µM (inactive).

With `CCc1c(CNc2ccc(C(=O)NC(CC(=O)O)C(=O)O)cc2)ccc2nc(N)nc(N)c12` (centres undefined), the GI50 is > 61.9 µM (inactive) in assay [7]; < 0.0202 µM (active) in [8]; < 0.0262 µM (active) in [1]; 0.451 µM (active) in assay [2]; 0.133 µM (active) in assay [3]; > 60.3 µM (inactive) in assay [4]. Further, in assay [6], the GI50 was > 100 µM (inactive).

As to `COc1cc(C2(C)SCCCS2)c(I)c(OC)c1OC`, the GI50 in [7], in [8], in [1], in [2], in assay [3] and in [4] was > 100 µM (inactive) each time. In addition, the GI50 in assay [5], in assay [9] and in assay [6] was > 100 µM (inactive) each time.

For the compound `CC(=O)OC1CC2C(C)(C)C(=O)C=C[C@]2(C)C2CCC3(C)C(c4ccoc4)C(=O)C4OC43[C@]12C` (some centres undefined), the GI50 was 99.3 µM (inactive) in [7]; 31.6 µM (inactive) in assay [8]; 16.1 µM (inactive) in [1]; 17.2 µM (inactive) in assay [2]; 16 µM (inactive) in assay [3]; 51.1 µM (inactive) in assay [4]. In assay [5], the GI50 was 22.6 µM (inactive).

With `COc1ccc2[nH]cc(CCNC(C)=O)c2c1` [MELATONIN], the GI50 in assay [7], in assay [8], in assay [1], in assay [2], in [3] and in assay [4] was > 100 µM (inactive) in each case. In addition, the GI50 in assay [5] and in assay [6] was > 100 µM (inactive) each time.

`Cc1ccc(C(O)(c2ccc(C)cc2)c2ccccn2)cc1`: the GI50 in assay [7], in assay [8], in [1], in [2], in assay [3] and in assay [4] was > 100 µM (inactive) each time. In [9], the GI50 was > 100 µM (inactive).

On to `CC(C)(C)C(=O)OC12/C(=N/O)CCCCCC1c1ccccc12` (centres undefined), for which the GI50 was 18.8 µM (inactive) in assay [7]; 17.9 µM (inactive) in assay [8]; 19.4 µM (inactive) in assay [1]; 20.2 µM (inactive) in [2]; 16.6 µM (inactive) in assay [3]; 25.1 µM (inactive) in assay [4]. Further, in assay [5], the GI50 was 16.3 µM (inactive).

With `CCOC(=O)C1=C(O)C(=O)c2ccsc2C1=O`, the GI50 in assay [7] is > 100 µM (inactive); in assay [8] it was > 100 µM (inactive); in assay [1], > 100 µM (inactive); in assay [2], > 100 µM (inactive); in [3], 20.6 µM (inactive); in [4], > 100 µM (inactive).

In the case of `CC(C)=CCC/C(C)=C/CC/C(C)=C/Cc1c(O)c2ccccc2oc1=O`, the GI50 was > 100 µM (inactive) in [7]; > 100 µM (inactive) in assay [8]; 83.6 µM (inactive) in assay [1]; > 100 µM (inactive) in [2]; > 100 µM (inactive) in [3]; > 100 µM (inactive) in assay [4]. In [5], the GI50 was > 100 µM (inactive).

For the compound `CN(C)C(=S)/N=c1\ssc(=S)n1-c1ccccc1`, the GI50 in [7] is > 100 µM (inactive); in assay [8], 20.9 µM (inactive); in assay [1], 15.9 µM (inactive); in assay [2] it was 16.6 µM (inactive); in [3], 16.3 µM (inactive); in [4], 19.4 µM (inactive). Also, the GI50 was 12.4 µM (inactive) in assay [5] and 14.7 µM (inactive) in assay [6].

With `COc1cc(N)c2[nH]c3c(C)ccc(C)c3c2c1`, the GI50 in [8], in assay [1], in assay [3], in [4] and in assay [6] was > 100 µM (inactive) throughout.

(Values after ChEMBL document CHEMBL1201862, “PubChem BioAssay data set” (2004).)
